pEC50: −log10 of the molar value. Some results are limits rather than exact numbers.

T1 sequence (P20393 with tags, fused parts or gaps DEL324-422): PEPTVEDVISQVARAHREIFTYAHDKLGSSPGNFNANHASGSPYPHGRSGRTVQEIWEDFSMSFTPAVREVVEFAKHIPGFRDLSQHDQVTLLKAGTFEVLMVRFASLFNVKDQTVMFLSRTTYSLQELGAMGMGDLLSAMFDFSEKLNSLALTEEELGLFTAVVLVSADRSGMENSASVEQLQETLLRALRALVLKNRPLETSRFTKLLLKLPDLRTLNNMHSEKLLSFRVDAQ
T1 sequence (Q9Y618 2335-2356 partner limits assumed): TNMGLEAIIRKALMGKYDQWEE

The first test concerns the target T1, REV-ERBα LBD (human; residues 281-614 Δ324-422) (Homo sapiens, UniProt P20393, DEL324-422).
T1 construct: 6×Histag-REV-ERBα LBD (human; residues 281-614 Δ324-422); made in house; host or cells: Escherichia coli
The test can be described thus: TR-FRET corepressor interaction assay (REV-ERBα LBD, FITC-SMRT peptide). The class given is biochemical. To be noted: FITC-SMRT peptide, read-out: REVERBα agonism (EC50 class, FRET assay). Summed up:
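Compound serial dilutions (in DMSO, triplicate) incubated 2 h at 4 °C; Tb donor excited at 340 nm, emission read at 495 nm and FITC acceptor at 520 nm. TR-FRET ratio (520/495 nm) plotted against ligand concentration and fitted to a sigmoidal dose-response curve.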
In general terms: TR-FRET usually uses a lanthanide donor and a delayed reading to cut background.
As to `CC(C)(C)Cn1cc([C@H](NS(=O)(=O)C2CCOC2)C(F)(F)F)c2cc(F)c(-c3ccccc3C(F)(F)F)cc21` (stereo partly drawn) [Example 461, N—((S)-2,2,2-trifluoro-1-(5-fluoro-1-neopentyl-6-(2-(trifluoromethyl)phenyl)-1H-indol-3-yl)ethyl)tetrahydrofuran-3-sulfonamide], the negative-log EC50 (pEC50) (commonly the EC50 on a negative log10 scale, so that one unit is a factor of ten) is below 5.52.

Turning to `CC(C)(C)Cn1cc([C@H](NS(=O)(=O)C2CCC2)C(F)(F)F)c2ccc(C3CCOCC3)cc21` [Example 519, (S)—N-(2,2,2-trifluoro-1-(1-neopentyl-6-(tetrahydro-2H-pyran-4-yl)-1H-indol-3-yl)ethyl)cyclobutanesulfonamide], the negative logarithm of the EC50 (pEC50) is above 6.30.

Regarding `CC(NS(=O)(=O)C1CCC1)c1cn(CC(C)(C)C)c2cc(-c3ccccc3C(F)(F)F)c(F)cc12` (stereo not shown) [Example 508, N-(1-(5-fluoro-1-neopentyl-6-(2-(trifluoromethyl)phenyl)-1H-indol-3-yl)ethyl)cyclobutanesulfonamide], the negative logarithm of the EC50 (pEC50) was above 6.30.

As for `[2H][C@](NS(=O)(=O)C1CCC1)(c1cn(CC(C)(C)C)c2cc(-c3ccccc3C(F)(F)F)ccc12)C(F)F` [Example 563, (S)—N-(2,2-difluoro-1-(1-neopentyl-6-(2-(trifluoromethyl)phenyl)-1H-indol-3-yl)ethyl-1-d)cyclobutanesulfonamide], the negative logarithm of the EC50 (pEC50) was above 6.30.

As for `CC(C)(C)Cn1cc([C@H](NS(=O)(=O)C2CC2)C(F)(F)F)c2ccc(-c3c(F)cccc3Cl)cc21` [Example 464, (S)—N-(1-(6-(2-chloro-6-fluorophenyl)-1-neopentyl-1H-indol-3-yl)-2,2,2-trifluoroethyl)cyclopropanesulfonamide], the negative logarithm of the EC50 (pEC50) was above 6.30.

As to `CC(C)Cn1cc([C@H](NS(=O)(=O)C2CC2)C(F)(F)F)c2cc(F)c(-c3ccncn3)cc21` [Example 455, (S)—N-(2,2,2-trifluoro-1-(5-fluoro-1-isobutyl-6-(pyrimidin-4-yl)-1H-indol-3-yl)ethyl)cyclopropanesulfonamide], the pEC50 is above 6.30.

Regarding `COC(C)(C)Cn1cc([C@H](NS(=O)(=O)C2CC2)C(F)(F)F)c2cc(F)c(-c3ccccc3C(F)(F)F)cc21` [Example 475, N-[(1S)-2,2,2-trifluoro-1-[5-fluoro-1-(2-methoxy-2-methyl-propyl)-6-[2-(trifluoromethyl)phenyl]indol-3-yl]ethyl]cyclopropanesulfonamide], the pEC50 is above 6.30.

As to `CC(C)(C)Cn1cc([C@H](NS(=O)(=O)C2CCC2)C(F)F)c2cc(F)c(-c3ccccc3C(F)(F)F)cc21` [Example 435, (S)—N-(2,2-difluoro-1-(5-fluoro-1-neopentyl-6-(2-(trifluoromethyl)phenyl)-1H-indol-3-yl)ethyl)cyclobutanesulfonamide], the negative-log EC50 (pEC50) is above 6.30.

As to `CCCn1cc([C@H](NS(=O)(=O)C2CCC2)C(F)(F)F)c2ccc(-c3ccccc3C(F)(F)F)cc21` [Example 438, (S)—N-(2,2,2-trifluoro-1-(1-propyl-6-(2-(trifluoromethyl)phenyl)-1H-indol-3-yl)ethyl)cyclobutanesulfonamide], the negative-log EC50 (pEC50) is above 6.30.

For `CC(C)(C)Cn1cc([C@H](NS(=O)(=O)C2CCC2)C(F)(F)F)c2cc(F)c(-c3cnccc3C(F)(F)F)cc21` [Example 530, (S)—N-(2,2,2-trifluoro-1-(5-fluoro-1-neopentyl-6-(4-(trifluoromethyl)pyridin-3-yl)-1H-indol-3-yl)ethyl)cyclobutanesulfonamide], the negative-log EC50 (pEC50) is above 6.30.

Staying with this test, now noted: Table 2, read-out: REVERBα agonism (EC50 class, FRET assay).
With `CC(C)Cn1cc(CCNS(=O)(=O)N(C)C)c2ccc(C3CCC3)cc21` [Example 108, ({2-[6-cyclobutyl-1-(2-methylpropyl)-1H-indol-3-yl]ethyl}sulfamoyl)dimethylamine], the negative logarithm of the EC50 (pEC50) is above 6.30.

Take `CC(C)Cn1cc([C@H]2C[C@H]2NS(=O)(=O)C(C)C)c2ccc(Br)cc21` [Compound 257]: the pEC50 was 5.52 to 6.30.

Consider `O=S(=O)(N[C@@H](c1cn(CC2CCCC2)c2cc(-c3ccccc3C(F)(F)F)c(F)cc12)C(F)(F)F)C1CC1` [Example 422, (S)—N-(1-(1-(cyclopentylmethyl)-5-fluoro-6-(2-(trifluoromethyl)phenyl)-1H-indol-3-yl)-2,2,2-trifluoroethyl)cyclopropanesulfonamide], for which the pEC50 is above 6.30.

Turning to `CC(C)(C)Cn1cc([C@H](NS(=O)(=O)C2CC2)C(F)(F)F)c2ccc(-c3c(C#N)cccc3C(F)(F)F)cc21` [Example 389, (S)—N-(1-(6-(2-cyano-6-(trifluoromethyl)phenyl)-1-neopentyl-1H-indol-3-yl)-2,2,2-trifluoroethyl)cyclopropanesulfonamide], the pEC50 was above 6.30.

On to `CC(C)(C)Cc1cn(CCNS(=O)(=O)C2CC2)c2ccc(-c3ccc(F)cc3C(F)(F)F)c(F)c12` [Example 295], for which the pEC50 was 5.52 to 6.30.

Consider `COc1ccccc1-c1ccc2c(c1)c(CC(C)(C)C)cn2CCNS(=O)(=O)C1CC1` [Example 303, N-(2-(5-(2-methoxyphenyl)-3-neopentyl-1H-indol-1-yl)ethyl)cyclopropane-sulfonamide], for which the pEC50 is above 6.30.

As to `Cc1ccc(-c2ccc3c(CCNS(=O)(=O)C4CC4)cn(CC(C)(C)C)c3c2)c(C(F)(F)F)c1` [Example 398, N-(2-(6-(4-methyl-2-(trifluoromethyl)phenyl)-1-neopentyl-1H-indol-3-yl)ethyl)cyclopropanesulfonamide], the pEC50 is above 6.30.

On to `CC(C)Cn1cc([C@H](NS(=O)(=O)C2CC2)C(F)(F)F)c2ccc(-c3ccnn3C)cc21` [Example 370, (S)—N-(2,2,2-trifluoro-1-(1-isobutyl-6-(1-methyl-1H-pyrazol-5-yl)-1H-indol-3-yl)ethyl)cyclopropanesulfonamide], for which the negative logarithm of the EC50 (pEC50) was above 6.30.

With `Cc1ccccc1-c1ccc2c(c1)c(CC(C)(C)C)cn2CCNS(=O)(=O)C1CC1` [Example 302, N-(2-(3-neopentyl-5-(o-tolyl)-1H-indol-1-yl)ethyl)cyclopropanesulfonamide], the pEC50 is above 6.30.

For `CC(C)Cn1cc(CC(=O)NS(=O)(=O)N(C)C)c2ccc(-c3ccncc3)cc21` [Compound 234], the negative-log EC50 (pEC50) is below 5.52.

On to `CC(C)Cn1cc(CCNS(=O)(=O)N(C)C)c2ccc(-c3cnoc3)cc21` [Compound 65, dimethyl({2-[1-(2-methylpropyl)-6-(1,2-oxazol-4-yl)-1H-indol-3-yl]ethyl}sulfamoyl)amine], for which the pEC50 is 5.52 to 6.30.

Take `CN(C)S(=O)(=O)NCc1cn(C(=O)C(C)(C)C)c2cc(-c3ccncc3)ccc12` [Example 186, 1-(3-{[(dimethylsulfamoyl)amino]methyl}-6-(pyridin-4-yl)-1H-indol-1-yl)-2,2-dimethylpropan-1-one]: the negative logarithm of the EC50 (pEC50) was 5.52 to 6.30.

In the case of `CC(C)(C)Cn1cc([C@H](NS(=O)(=O)C2CC2)C(F)(F)F)c2ccc(-c3cccnc3)cc21` [Example 383, (S)—N-(2,2,2-trifluoro-1-(1-neopentyl-6-(pyridin-3-yl)-1H-indol-3-yl)ethyl)cyclopropanesulfonamide], the negative-log EC50 (pEC50) is 5.52 to 6.30.

Regarding `CN(C)S(=O)(=O)NCCc1cn(Cc2cccc([N+](=O)[O-])c2)c2cc(-c3ccncc3)ccc12` [Example 148, N-{2-[6-(pyridin-4-yl)-1-(3-nitrobenzyl)-1H-indol-3-yl]ethyl}-N,N-dimethylsulfuric diamide], the pEC50 was 5.52 to 6.30.

As for `CC(C)(C)Cc1cn(CCNS(=O)(=O)C2CC2)c2cc(F)c(Br)cc12` [Example 293, N-(2-(5-bromo-6-fluoro-3-neopentyl-1H-indol-1-yl)ethyl)cyclopropanesulfonamide], the negative logarithm of the EC50 (pEC50) was below 5.52.

Source of the values: patent US20230339886A1 (University of Florida Research Foundation, Incorporated, priority 2020, published 2023).
